Source: ChEMBL document CHEMBL5500399, “Design, Synthesis, and Biological Evaluation of 1,2,4-Oxadiazole Derivatives Containing an Aryl Carboxylic Acid Moiety as Potent Sarbecovirus Papain-like Protease Inhibitors” (J Med Chem, 2024)
pIC50, pKd: −log10 of the molar value. Activity calls are given as the source filed them. No cut-off for these calls is given here.

Columns and labels:
[1] = Metabolic stability in human hepatocytes assessed as half life at 1 uM measured upto 30 mins; assay type: ADME, cell-based, Hepatocyte
[2] = Metabolic stability in mouse hepatocytes assessed as half life at 1 uM measured upto 30 mins; assay type: ADME, cell-based, Hepatocyte
[3] = Metabolic stability in human hepatocytes assessed as intrinsic clearance per million cells at 1 uM measured upto 30 mins; assay type: ADME, cell-based, Hepatocyte; details: read-out: CLH
[4] = Metabolic stability in mouse hepatocytes assessed as intrinsic clearance per million cells at 1 uM measured upto 30 mins; assay type: ADME, cell-based, Hepatocyte; details: read-out: CLH
[5] = Metabolic stability in human hepatocytes assessed as compound remaining at 1 uM measured after 30 mins; assay type: ADME, cell-based, Hepatocyte; details: read-out: Stability
[6] = Metabolic stability in mouse hepatocytes assessed as compound remaining at 1 uM measured after 30 mins; assay type: ADME, cell-based, Hepatocyte; details: read-out: Stability
[7] = Cytotoxicity against african green monkey Vero E6 cells incubated for 48 hrs; assay type: toxicity, cell-based, Vero C1008; details: chlorocebus sabaeus
[8] = Metabolic stability in human liver microsomes assessed as half life; assay type: ADME, Microsome
[9] = Metabolic stability in human liver microsomes assessed as intrinsic clearance; assay type: ADME, Microsome; details: read-out: CLH
[10] = molecular target: T1, Replicase polyprotein 1ab (Severe acute respiratory syndrome coronavirus 2, UniProt P0DTD1); experiment: Inhibition of SARS-CoV2 PLpro using Z-RLRGG-AMC as substrate preincubated for 10 mins followed by substrate addition and measured after 20 sec shaking for 30 mins by time-resolved fluorescence assay
[11] = Metabolic stability in human liver microsomes assessed as half life at 1 uM preincubated for 5 mins followed by NADPH addition and measured after 30 mins by LC-MS/MS analysis; assay type: ADME, Microsome; details: time 35 min
[12] = Metabolic stability in CD-1 mouse liver microsomes assessed as half life at 1 uM preincubated for 5 mins followed by NADPH addition and measured after 30 mins by LC-MS/MS analysis; assay type: ADME, Microsome; details: time 35 min
[13] = Metabolic stability in human liver microsomes assessed as compound remaining at 1 uM preincubated for 5 mins followed by NADPH addition and measured after 30 mins by LC-MS/MS analysis; assay type: ADME, Microsome; details: read-out: Stability
[14] = Metabolic stability in CD-1 mouse liver microsomes assessed as compound remaining at 1 uM preincubated for 5 mins followed by NADPH addition and measured after 30 mins by LC-MS/MS analysis; assay type: ADME, Microsome; details: read-out: Stability
[15] = Half life in BALB/c mouse at 50 mg/kg, po measured upto 48 hrs by LC-MS/MS analysis; assay type: ADME, organism-based; details: in vivo
[16] = Tmax in BALB/c mouse at 50 mg/kg, po measured upto 48 hrs by LC-MS/MS analysis; assay type: ADME, organism-based; details: in vivo
[17] = Cmax in BALB/c mouse at 50 mg/kg, po measured upto 48 hrs by LC-MS/MS analysis; assay type: ADME, organism-based; details: in vivo
[18] = AUC(0 to t) in BALB/c mouse at 50 mg/kg, po measured upto 48 hrs by LC-MS/MS analysis; assay type: ADME, organism-based; details: in vivo
[19] = AUC(0 to infinity) in BALB/c mouse at 50 mg/kg, po measured upto 48 hrs by LC-MS/MS analysis; assay type: ADME, organism-based; details: in vivo
[20] = MRT(0 to t) in BALB/c mouse at 50 mg/kg, po measured upto 48 hrs by LC-MS/MS analysis; assay type: ADME, organism-based; details: in vivo
[21] = MRT(0 to infinity) in BALB/c mouse at 50 mg/kg, po measured upto 48 hrs by LC-MS/MS analysis; assay type: ADME, organism-based; details: in vivo
[22] = Oral bioavailability in BALB/c mouse at 50 mg/kg measured upto 48 hrs by LC-MS/MS analysis; assay type: ADME, organism-based; details: in vivo
[23] = Half life in BALB/c mouse at 5 mg/kg, iv measured upto 48 hrs by LC-MS/MS analysis; assay type: ADME, organism-based; details: in vivo
[24] = Tmax in BALB/c mouse at 5 mg/kg, iv measured upto 48 hrs by LC-MS/MS analysis; assay type: ADME, organism-based; details: in vivo
[25] = Cmax in BALB/c mouse at 5 mg/kg, iv measured upto 48 hrs by LC-MS/MS analysis; assay type: ADME, organism-based; details: in vivo
[26] = AUC(0 to t) in BALB/c mouse at 5 mg/kg, iv measured upto 48 hrs by LC-MS/MS analysis; assay type: ADME, organism-based; details: in vivo
[27] = AUC(0 to infinity) in BALB/c mouse at 5 mg/kg, iv measured upto 48 hrs by LC-MS/MS analysis; assay type: ADME, organism-based; details: in vivo
[28] = MRT(0 to t) in BALB/c mouse at 5 mg/kg, iv measured upto 48 hrs by LC-MS/MS analysis; assay type: ADME, organism-based; details: in vivo
[29] = MRT(0 to infinity) in BALB/c mouse at 5 mg/kg, iv measured upto 48 hrs by LC-MS/MS analysis; assay type: ADME, organism-based; details: in vivo
[30] = Clearance in BALB/c mouse at 5 mg/kg, iv measured upto 48 hrs by LC-MS/MS analysis; assay type: ADME, organism-based; details: in vivo
[31] = molecular target: T1, Replicase polyprotein 1ab; experiment: Binding affinity to SARS-CoV2 PLpro by biolayer interferometry analysis
[32] = molecular target: Replicase polyprotein 1ab (Severe acute respiratory syndrome coronavirus 2) (UniProt P0DTD1); experiment: Inhibition of SARS-CoV2 PLpro cleavage activity using 2Ub-K48 as substrate incubated overnight by SYPRO Ruby staining based SDS-PAGE analysis
[33] = molecular target: Replicase polyprotein 1ab (Severe acute respiratory syndrome coronavirus 2) (UniProt P0DTD1); experiment: Inhibition of RLRGG binding to SARS-CoV2 PLpro
[34] = system: Severe acute respiratory syndrome-related coronavirus; experiment: Inhibition of SARS-CoV PLpro using Z-RLRGG-AMC as substrate preincubated for 10 mins followed by substrate addition and measured after 20 sec shaking for 30 mins by time-resolved fluorescence assay
[35] = molecular target: Replicase polyprotein 1ab (Middle East respiratory syndrome-related coronavirus (isolate UnitedKingdom/H123990006/2012) (Betacoronavirus England 1) (Humancoronavirus EMC)) (UniProt K9N7C7); experiment: Inhibition of MERS-CoV PLpro using Z-RLRGG-AMC as substrate preincubated for 10 mins followed by substrate addition and measured after 20 sec shaking for 30 mins by time-resolved fluorescence assay; details: time 40.3 min
[36] = molecular target: Replicase polyprotein 1ab (Severe acute respiratory syndrome coronavirus 2) (UniProt P0DTD1); experiment: Binding affinity to SARS-CoV2 PLpro assessed as stabilization by measuring increase melting temperature by thermal shift assay

Compound: Cc1ccc(N)cc1C(=O)N[C@H](C)c1cccc2ccccc12
- half-life at 1 µM [1]: 0.75 h
- half-life at 1 µM [2]: 7.6 min
- hepatocyte CLint at 1 µM [3]: 15.4 µL/min/1e6 cells
- hepatocyte CLint at 1 µM [4]: 91.5 µL/min/1e6 cells
- remaining at 0.5 h, 1 µM [5]: 63%
- remaining at 0.5 h, 1 µM [6]: 6.4%
- CC50 at 48 h [7]: 253 µM
- half-life [8]: 0.44 h
- CLint scaled [9]: 27 mL/min/kg

Compound: Cc1ccc(-c2noc(C(C)c3ccc(-c4ccccc4)c(F)c3)n2)cc1NCc1ccc(C(=O)O)s1 (racemic)
- pIC50 [10]: 6.00
- half-life at 1 µM [11]: > 1.55 h
- half-life at 1 µM [12]: > 1.55 h
- remaining at 0.5 h, 1 µM [13]: 101%
- remaining at 0.5 h, 1 µM [14]: 99.1%
- half-life [15]: 2.53 h
- Tmax [16]: 1.25 h
- Cmax [17]: 10200 ng/mL
- AUC(0-t) at 48 h [18]: 24300 ng·h/mL
- AUC(0-inf) [19]: 24400 ng·h/mL
- MRT last at 48 h [20]: 2.19 h
- MRT inf [21]: 2.72 h
- bioavailability [22]: 39.1%
- half-life [23]: 4.2 h
- Tmax [24]: 0.05 h
- Cmax [25]: 10600 ng/mL
- AUC(0-t) at 48 h [26]: 6210 ng·h/mL
- AUC(0-inf) [27]: 6260 ng·h/mL
- MRT last at 48 h [28]: 2.74 h
- MRT inf [29]: 2.96 h
- clearance [30]: 13.5 mL/min/kg
- CC50 at 48 h [7]: 124 µM
- pKd [31]: 4.87
- inhibition [32]: Active
- inhibition [33]: Active
- inhibition [34]: Active
- inhibition [35]: Active

Compound: CC(c1nc(-c2ccc(-c3ccc(C(=O)O)s3)cc2)no1)c1cccc2ccccc12 (centres undefined)
- pIC50 [10]: 5.74
- half-life at 1 µM [11]: > 1.55 h
- half-life at 1 µM [12]: > 1.55 h
- remaining at 0.5 h, 1 µM [13]: 82.1%
- remaining at 0.5 h, 1 µM [14]: 101%
- half-life [15]: 6.5 h
- Tmax [16]: 0.88 h
- Cmax [17]: 3670 ng/mL
- AUC(0-t) at 48 h [18]: 17400 ng·h/mL
- AUC(0-inf) [19]: 17500 ng·h/mL
- MRT last at 48 h [20]: 8.05 h
- MRT inf [21]: 8.29 h
- bioavailability [22]: 4.8%
- half-life [23]: 5.8 h
- Tmax [24]: 0.17 h
- Cmax [25]: 14200 ng/mL
- AUC(0-t) at 48 h [26]: 36300 ng·h/mL
- AUC(0-inf) [27]: 36300 ng·h/mL
- MRT last at 48 h [28]: 5.04 h
- MRT inf [29]: 5.12 h
- clearance [30]: 2.35 mL/min/kg
- CC50 at 48 h [7]: 170 µM
- pKd [31]: 4.87
- inhibition [32]: Active
- inhibition [33]: Active
- inhibition [34]: Active
- inhibition [35]: Active
- Activity [36]: Active
